These results are taken from PubChem BioAssay AID489040 (Sanford-Burnham Center for Chemical Genomics, 2010).

The source made the active and inactive calls.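 How the source made its calls: active means mean half-maximal activating concentration from the dose-response fit at or below a set limit; inactive means the rest.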

The assay deals with CHO-XBP1 luciferase reporter, IRE1-XBP1 UPR activation. Nature of the assay: activators of IRE1-XBP1 UPR arm, dose response, counter-screen for apoptotic UPR arm activators, CHO-XBP1 cells, luminescence (AID 489040).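 Further: reporter read after six hours of compound exposure.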
In the case of `CCc1cccc2c(C(=O)CCl)c[nH]c12`, the EC50 is > 80 µM (inactive).
Then `CCOC(=O)c1c(C)oc2c1c(C(c1ccccc1)N1CCOCC1)c(O)c1ccccc12` (stereo unspecified), with > 80 µM (inactive).
Then `COc1ccc(C2OC34CCCCC3C(C#N)(C#N)C2(C#N)C(=N)O4)cc1` (stereo unspecified), with > 80 µM (inactive).
Take `O=C1/C(=C/c2ccc(N3CCOCC3)o2)SC(=Nc2ccccc2)N1CCc1c[nH]c2ccccc12`: the EC50 was > 80 µM (inactive).
Then `CCOC(=O)c1c(C)oc2c1c(C(c1cccnc1)N1CCCCC1)c(O)c1ccccc12` (stereo unspecified), with > 80 µM (inactive).
Then `Cc1ccc2nc(-c3ccc(O)c(O)c3)cn2c1`, with > 80 µM (inactive); and `O=C(CN1CCN(c2ccccc2F)CC1)c1ccc(O)c(O)c1`, with > 80 µM (inactive).
Then `Cc1cccc2sc(NC(=O)c3cc(S(=O)(=O)N(C)C)ccc3N3CCCC3)nc12`, with 5.3 µM.
With `Cc1ccc(Sc2nc(-c3ccccc3)nnc2C(F)(F)F)cc1`, the EC50 was > 80 µM (inactive).
Then `Cc1c(C#N)c(NC(=O)CCl)n(Cc2ccccc2)c1C`, with > 80 µM (inactive); and `CC1(C)CC(=O)C(=Cc2cn(-c3ccccc3)nc2-c2ccccc2)C(=O)C1`, with > 80 µM (inactive).
Then `Oc1[nH]c2ccccc2c1N=NC(=S)N1CCOCC1`, with “inactive”.
As for `CCCCCC(=O)Nc1ccc(C(=O)N/N=C/c2ccc([N+](=O)[O-])cc2)cc1`, the EC50 was > 80 µM (inactive).
Consider `Oc1ccc(CN2CCN(c3ccccc3)CC2)c2cccnc12`, for which the EC50 was > 80 µM (inactive).
Then `Clc1ccc(-c2ccc(/C=N/Nc3nncc(-c4ccccc4)n3)o2)cc1`, with “inactive”; and `CCOc1ccc(N2C(=O)CC(N(O)c3ccccc3)C2=O)cc1` (stereo unspecified), with > 80 µM (inactive); and `C[C@@H]1CN([C@H](C)CO)C(=O)c2cc(NC(=O)Nc3ccc(C(F)(F)F)cc3)ccc2O[C@H]1CN(C)Cc1ccc(Cl)c(Cl)c1`, with > 80 µM (inactive).
Then `O=C1NC(=O)N(Cc2ccccc2Cl)C(=O)/C1=C/c1cccs1`, with > 80 µM (inactive).
With `C/C(=N\NC(=O)c1ccc(F)cc1)c1ccccn1`, the EC50 was > 80 µM (inactive).
Then `COC(=O)c1c(NC(=O)c2ccc([N+](=O)[O-])o2)sc2c1CCN(C(C)C)C2`, with > 80 µM (inactive).
Regarding `Cc1ccc(-c2nc(NC(=O)c3nn(C)cc3[N+](=O)[O-])sc2C)cc1`, the EC50 is > 80 µM (inactive).
On to `COc1cc(/C=C2\COC/C(=C\c3ccc(O)c(OC)c3)C2=O)ccc1O`, for which the EC50 is > 80 µM (inactive).
In the case of `CCCCOc1ccc(N2C(=O)CC(N(O)c3ccccc3)C2=O)cc1` (stereo unspecified), the EC50 was > 80 µM (inactive).
Then `Cc1nn(Cc2c(Cl)cccc2Cl)c(C)c1NC(=O)c1cn(-c2ccccc2)nc1-c1ccccc1`, with > 80 µM (inactive).
Then `COc1cc(/C=C/[N+](=O)[O-])ccc1O`, with > 80 µM (inactive); and `Cc1cc(C)c(C(CC(=O)c2cccs2)C(C#N)C#N)c(C)c1` (stereo unspecified), with > 80 µM (inactive); and `Cc1ccc(N2C(=O)NC(=O)/C(=C/C=C/c3ccco3)C2=O)cc1`, with > 80 µM (inactive).
As to `COc1ccc(/C=N/Nc2cc(C)nc(-n3nc(C)cc3C)n2)c(OC)c1`, the EC50 was > 80 µM (inactive).
For `CCOC(=O)c1c(C)oc2c1c(C(c1cccnc1)N1CCOCC1)c(O)c1ccccc12` (stereo unspecified), the EC50 is > 80 µM (inactive).
On to `C=C(C(=O)c1ccccc1)C(C(=C)C(=O)c1ccccc1)c1ccc(OC)cc1`, for which the EC50 is > 80 µM (inactive).
Then `Cn1c(=O)c2c(SCC(=O)Nc3ccccc3F)nc(-c3ccccc3F)nc2n(C)c1=O`, with 10.9 µM.
Then `COc1ccc(C(=O)C(CN2CCCC2)c2ccccc2)cc1` (stereo unspecified), with > 80 µM (inactive); and `N#CC1=C(N)OC2=C(CC/C2=C\c2ccccc2)C1c1ccccc1` (stereo unspecified), with > 80 µM (inactive).
As to `CC(=O)Oc1ccc(OC(C)=O)c(SCCCCCN2CCOCC2)c1`, the EC50 is > 80 µM (inactive).
As to `O=c1[nH]c(-c2ccc(-c3cccc(Cl)c3)o2)nc2ccccc12`, the EC50 was 15 µM.
Take `O=C(c1ccc(Br)cc1)C(CN1CCOCC1)c1ccccc1` (stereo unspecified): the EC50 is > 80 µM (inactive).
For `S=C(Nc1ccccc1)c1ccccn1`, the EC50 is > 80 µM (inactive).
For the molecule `Cc1ccc(-c2nn3c(C)nnc3s2)cc1NC(=O)c1ccc(-c2ccc(Cl)cc2Cl)o1`, the EC50 was 15.9 µM.
Then `Cc1ccc(S(=O)(=O)Nc2cccc3cccnc23)c([N+](=O)[O-])c1`, with > 80 µM (inactive); and `COc1cc(C(=O)Nc2nc(-c3ccc(Cl)cc3)c(C)s2)ccc1OCC(=O)Nc1ccc(F)cc1`, with > 80 µM (inactive); and `COc1ccc(C2c3ccc4ccccc4c3Oc3ncn(CCCN(C)C)c(=N)c32)cc1` (stereo unspecified), with > 80 µM (inactive).
With `CC1=CC(C)(C)Nc2ccc(OC(=O)CN3C(=O)C4CCCCC4C3=O)cc21` (stereo unspecified), the EC50 is > 80 µM (inactive).
Then `CN1C(=O)NC(=O)/C(=C\C=C\c2ccccc2[N+](=O)[O-])C1=O`, with > 80 µM (inactive); and `C/C(=N\NC(=O)c1ccccc1OCc1ccc(F)cc1)c1ccccn1`, with > 80 µM (inactive); and `COc1ccc(CCNC(=O)c2coc(=O)c(Br)c2)cc1`, with > 80 µM (inactive).
Then `CN(C)S(=O)(=O)c1cccc(NC(=O)CSc2cccc3cccnc23)c1`, with > 80 µM (inactive); and `COC(=O)c1ccc(C(=O)OC)c(NC(=O)CSc2cccc[n+]2[O-])c1`, with 9.54 µM; and `CN1CSC(=S)N(C)C1`, with > 80 µM (inactive).
Then `CCc1ccc(N2C(=O)NC(=O)/C(=C\C=C\c3ccco3)C2=O)cc1`, with > 80 µM (inactive).
`Cc1nc([N+](=O)[O-])c(Br)n1CC(=O)c1ccc2ccccc2c1`: the EC50 is > 80 µM (inactive).
Then `CCOc1cc(C=C(C(=O)OC)C(=O)OC)ccc1OCc1ccc([N+](=O)[O-])cc1`, with > 80 µM (inactive).
Take `COc1cc([N+](=O)[O-])cc(/C=N/NC(=O)c2ccc(NC(=O)c3ccc(C)cc3)cc2)c1O`: the EC50 is > 80 µM (inactive).
Then `Cc1ccc2[nH]cc(C(=O)CCl)c2c1`, with > 80 µM (inactive).
Then `CCN(CC)c1ccc(C=C2C(=O)NC(=S)NC2=O)cc1`, with > 80 µM (inactive).
Then `COc1ccc(/C=C/c2ccc3cccc(O)c3n2)c(OC)c1OC`, with > 80 µM (inactive).
On to `CN(C)CC(C(=O)c1ccccc1)c1ccccc1` (stereo unspecified), for which the EC50 was > 80 µM (inactive).
With `COc1ccc(-c2ccc(-c3nc4c(c(=O)[nH]c(=O)n4Cc4ccccc4)n3C)o2)c([N+](=O)[O-])c1`, the EC50 was > 80 µM (inactive).
Then `Cc1ccc(N2C(=O)NC(=O)/C(=C/c3cnn(-c4ccc(C)cc4)c3)C2=O)cc1`, with > 80 µM (inactive); and `Cc1ccc(C(=O)/C=C/C(=O)c2ccc(C)cc2)cc1`, with > 80 µM (inactive).
On to `COc1ccc(OC)c(Nc2nc(-c3ccc(O)c(O)c3)cs2)c1`, for which the EC50 is > 80 µM (inactive).
Then `O=C(N/N=C/c1ccccn1)c1cc(-c2ccc(Cl)cc2)nc2ccccc12`, with > 80 µM (inactive); and `CCc1cc(C(=O)c2ccc(C)cc2)c(NC(=O)CCl)s1`, with > 80 µM (inactive); and `CCc1ccc2nc(N(CCCN(C)C)C(=O)c3ccc(S(=O)(=O)N(C)C4CCCCC4)cc3)sc2c1`, with > 80 µM (inactive).
For `Cc1sc(NC(=O)c2cc(-c3ccc(Cl)cc3)nc3ccccc23)c(C(N)=O)c1C`, the EC50 is 15.2 µM.
Regarding `O=C(N/N=C/c1cccc([N+](=O)[O-])c1)c1cc2c(ccc3ccccc32)o1`, the EC50 is > 80 µM (inactive).
Then `Cc1cccc(N=Nc2ccc(O)c3ncccc23)c1`, with > 80 µM (inactive); and `COc1ccc2cc1Oc1ccc(cc1)CC1c3c(cc(OC)c4c3Oc3cc5c(cc3O4)CCNC5C2)CCN1C` (stereo unspecified), with > 80 µM (inactive).
Then `CC1(C)CC(=O)C(=Cc2cn(-c3ccccc3)nc2-c2ccc(Cl)cc2)C(=O)C1`, with > 80 µM (inactive).
Consider `S=C1SCN(Cc2ccco2)CN1Cc1ccco1`, for which the EC50 was > 80 µM (inactive).
As for `FC(F)(F)c1nnc2c(Sc3ccccc3)nc3ccc(Cl)cc3n12`, the EC50 is 9.74 µM.
Regarding `O=C1CC(c2cccc(Cl)c2)CC(O)=C1C=Nc1ccccc1` (stereo unspecified), the EC50 is > 80 µM (inactive).
`O=C(O)CC1CCC(=C(Cl)Cl)C1` (stereo unspecified): the EC50 is > 80 µM (inactive).
Then `O=C1NC(=O)N(Cc2ccccc2)C(=O)/C1=C\C=C\c1ccco1`, with > 80 µM (inactive); and `Cc1c(C#N)c(NC(=O)CCl)n(Cc2ccc(F)cc2)c1C`, with > 80 µM (inactive).
In the case of `COc1ccc(NC(=O)c2nc(S(=O)(=O)Cc3cccc(C)c3)ncc2Cl)c(OC)c1`, the EC50 was > 80 µM (inactive).
For `COc1cc(CNc2ccc3[nH]c(=O)[nH]c3c2)cc(Br)c1OCc1ccccc1F`, the EC50 is > 80 µM (inactive).
Then `O=C(CSc1nc2ccc(Nc3nc(N4CCOCC4)nc(N4CCOCC4)n3)cc2s1)Nc1ccccc1F`, with 5.61 µM; and `C/C(CCC12CC3CC(CC(C3)C1)C2)=N\NC(N)=S`, with > 80 µM (inactive); and `COc1ccccc1-c1cc(C(F)(F)F)nc(S(C)(=O)=O)n1`, with > 80 µM (inactive).
Then `CC1(C)CC(=O)C2=C(C1)Oc1nc3ccccc3cc1C2C(C#N)C#N` (stereo unspecified), with > 80 µM (inactive); and `Cc1ccc(Sc2ccc(/C=C3/C(=O)NN(c4ccccc4)C3=O)o2)cc1`, with > 80 µM (inactive).
Then `CCCCCCCCCn1c2c(c(=N)c3c1CCC3)CCC2`, with > 80 µM (inactive).
On to `Clc1ccc(-n2nnnc2Sc2ncnc3sccc23)cc1`, for which the EC50 is > 80 µM (inactive).
Then `O=C(CN(c1cccc(C(F)(F)F)c1)S(=O)(=O)c1ccc(Cl)c([N+](=O)[O-])c1)NCc1ccc(F)cc1`, with > 80 µM (inactive); and `CCC(=O)Nc1ccc(C(=O)Cn2ncc(Cl)c(Cl)c2=O)cc1`, with > 80 µM (inactive).
In the case of `Cc1cc(NC(=O)CCS(=O)(=O)c2nc(-c3ccccc3)cc(C(F)(F)F)n2)no1`, the EC50 is > 80 µM (inactive).
